“Also recorded” adds a separate entry of the source.
What was measured:
PRCV [1] = assay: PRCV entry assay in ST cells; type: cell-based, porcine respiratory coronavirus; details: PM 10 mM, PRCV 0.1 MOI, 1 or 2 h at 37°C, RT-qPCR and IFA
Procedure: Fig. S4. […] (A and B) Entry assay. ST cells were infected with 0.1
MOI PRCV for 1 h at 4 °C, and were then treated with PM (10 mΜ) or H2O for 1 h or 2 h at 37 °C. The cells samples were washed using sodium citrate buffer and detected by RT-qPCR (A) and IFA (B), Scale bar: 50 μm /5 μm. Results are presented as mean ± SD of data from three independent experiments ***, (also on this page, place not known: 0.0 0.5 1.0 1.5 Relative genomic RNA level *** *** DAPIPRCV PM H2O 1h 2h 1 2 3 4 5 H2O PM Viral load (log copies/ul) *** *** 1h 2h CollectedPM/H2O) […]

TGEV Miller = assay: TGEV infection of porcine intestinal organoids (monolayer, apical-out); type: cell-based, transmissible gastroenteritis virus; details: RT-qPCR, TCID50, western blot
Procedure: (§1) Fig 2 PM restricts TGEV and PRCV infection in porcine intestinal organoids. (A) Intestinal organoids cultured in 96-well plate were incubated with different concentrations of PM for 24 h, which was tested by Cell Counting Kit 8. (B and C) The intestinal organoids monolayer was treated with indicated PM and infected with TGEV Miller (0.1 MOI) for 24 h, which was measured by IFA (B), scale bar: 50 µm, RT-qPCR, TCID50, and western blot (C). (D) Apical-out intestinal organoids were treated with indicated PM and infected TGEV Miller (1 MOI) for 48 h, which was determined by RT-qPCR, TCID50, and western blot. (E and F) The intestinal organoids monolayer was treated with different concentrations of PM and infected with PRCV for 24 h, which was determined by IFA (E), scale bar: 50 µm, RT-qPCR, TCID50, and western blot (F). (G) Apical-out intestinal organoids were treated with indicated PM and infected PRCV (1 MOI) for 48 h, which was detected by RT-qPCR, TCID50, and western blot. Results are presented as mean ± SD of data from three independent experiments. **, P ≤ 0.01; ***, P ≤ 0.001.
(§2) Porcine 3D ileum organoids coated with Matrigel for 1 week were dissociated by incubation in 5 mM cold EDTA buffer on a rotating platform for 1 h at 4°C. […]

APN = APN expression in BHK-21 cells (western blot); type: cell-based, mouse; details: for APN level, western blot quantified by Image J, relative to no PM (=1): PM 10 mM
Procedure: Fig. S6. PM degrades human and mouse-derived APN expression. (A and B) HEK-293T cells (A) and […] (B) were treated with PM (10 mM) for 8 h or 16 h respectively, APN expression was measured by western blot. All western blot results were calculated by Image J. All experiments were […]
PM(10mM) - + - + PM(10mM) - + - + […]

[2] = system: autophagosomes and autolysosomes; assay: Autophagic flux (RFP-EGFP-LC3B sensor) and transmission electron microscopy in ST cells; type: cell-based, swine
Procedure: Fig 6 PM degrades APN by autophagy-lysosome pathway. (A) ST cells were treated with PM (10 mM) and infected with TGEV (0.1 MOI) in the presence and absence of MG132 (20 µM), 3-MA (20 mM), and Z-VAD-FMK (20 µM) for 16 h. The APN expression and TGEV N were detected by western blot. (B) ST cells were treated with PM (10 mM) at 2, 4, 8, and 16 h, autophagy markers P62 and LC3, and APN were measured by western blot. (C) ST cells were transfected with RFP-EGFP-LC3B for 12 h and then treated with PM (10 mM) or H2O for 36 h. The fluorescence of GFP and RFP was detected by confocal microscopy, scale bar: 5 µm. (D) Quantification of autophagosomes (Merge) and autolysosomes (RFP) from C using Image J software. (E) ST cells were treated with PM or H2O for 24 h. The autophagosomes (yellow arrow) and autolysosomes (asterisk) were detected by transmission electron microscope, scale bar: 2 µm. (F) The number of autophagosomes (yellow arrow) and autolysosomes (asterisk) was quantified. All western blot results were calculated by Image J. Results are presented as mean ± SD of data from three independent experiments. ***, P ≤ 0.001.

PDCoV = PDCoV infection of PK1 cells (RT-qPCR); type: cell-based; details: PM 10 mM, PDCoV 0.1 MOI, 17 h
Procedure: Fig. S1. […] (A) The PK1 cells, pretreated with PM (10mM) concentrations for 1 h were infected with PDCoV (0.1 MOI) for 1 h and were again treated with PM at 37 °C for 17 h.
The cell samples were collected and examined by RT-qPCR . Results are presented as mean ± SD of data from three independent experiments ***, P≤ 0.001.
(also on this page, place not known: RT-qPCR. + - + + 2 3 4 5 6Viral load(log copies/ul) *** PDCoV PM PDCoV M)
(1 picture or pasted object on this page, not shown here)

PRCV [3] = assay: PRCV infection of porcine intestinal organoids (monolayer, apical-out); type: cell-based, porcine respiratory coronavirus; details: monolayer 24 h; apical-out 1 MOI, 48 h; IFA, RT-qPCR, TCID50, western blot
Procedure: as §1, §2

[K+].[K+].[O]=[Mo](=[O])([O-])[O-] [PM, potassium molybdate]
PRCV entry (internalization) (PRCV [1]): blocks PRCV internalization; also recorded: The same results were also demonstrated for PRCV infection
TGEV infection in intestinal organoid monolayer (TGEV Miller; TGEV Miller 0.1 MOI, 24 h, IFA, dose-dependent): significantly inhibited TGEV infection
TGEV infection in apical-out organoids (TGEV Miller; TGEV Miller 1 MOI, 48 h): markedly inhibited TGEV infection
APN level, western blot quantified by Image J, relative to no PM (=1) (APN; 8 h): 0.38
APN level, western blot quantified by Image J, relative to no PM (=1) (APN; 16 h): 0.20
mouse-derived APN expression (APN; PM for 8 and 16 h): also decreased human and mouse-derived APN expression
autophagic flux (RFP-EGFP-LC3B sensor) ([2]; PM 10 mM, 36 h, confocal microscopy): increased RFP signals (autolysosomes) and merge signals (autophagosomes)
autophagosomes and autolysosomes by transmission electron microscopy ([2]; PM vs H2O, 24 h): formed more autophagosomes
PDCoV infection (PDCoV): inhibits PDCoV infection; also recorded: effectively restricted
PRCV infection in organoid monolayer and apical-out organoids (PRCV [3]): the same phenotypes were found

— publication PMC11784013, “Potassium molybdate blocks APN-dependent coronavirus entry by degrading receptor via PIK3C3-mediated autophagy” (Journal of Virology, 2024)
